Experimental data: the supplement of paper PMC10307832

Experiments:
Experiment in all cases: relative viability (nuclei count vs DMSO), 5 days (fraction); higher = more cells survive
[1] = compound: CCN1C(=O)C2=CC(=C(N=C2N(C1=O)C3CC3)N)C(=O)N + CCNC(=O)c1noc(-c2cc(C(C)C)c(O)cc2O)c1-c1ccc(CN2CCOCC2)cc1 [Luminespib] (partner 0.01 µM)
In short: (§1)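 One day after seeding in 1536-well plates, lung cancer cell lines were dosed by pin tool. Dosing was either single-drug or a fixed anchor-drug dose plus five library-drug doses (not always all listed) in √10 steps. After 5 days, nuclei were stained in one fix-and-stain step and counted on 4× images, and relative viability is the nuclei count of treated wells over that of vehicle wells, given as the median of duplicate plates.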

[2] = compound: CCN1C(=O)C2=CC(=C(N=C2N(C1=O)C3CC3)N)C(=O)N + CS(=O)(=O)N1CCN(Cc2cc3nc(-c4cccc5[nH]ncc45)nc(N4CCOCC4)c3s2)CC1 [Pictilisib] (partner 1 µM)
In short: as §1

[3] = compound: CCN1C(=O)C2=CC(=C(N=C2N(C1=O)C3CC3)N)C(=O)N + C[C@@H](Oc1cc(-c2cnn(C3CCNCC3)c2)cnc1N)c1c(Cl)ccc(F)c1Cl [Crizotinib] (partner 1 µM)
In short: as §1

[4] = compound: CCN1C(=O)C2=CC(=C(N=C2N(C1=O)C3CC3)N)C(=O)N + C[C@]1(O)C[C@@H](c2nc(-c3ccc4ccc(-c5ccccc5)nc4c3)c3c(N)nccn32)C1 [Linsitinib] (partner 1 µM)
In short: as §1

[5] = compound: CCN1C(=O)C2=CC(=C(N=C2N(C1=O)C3CC3)N)C(=O)N + N=C(N)NC(=N)NCCc1ccccc1 [Phenformin] (partner 250 µM)
In short: as §1

Cell Line	relative viability ([1]; first compound 0.253 µM)	relative viability ([1]; first compound 0.8 µM)	relative viability ([1]; first compound 2.53 µM)	relative viability ([1]; first compound 8 µM)	relative viability ([2]; first compound 0.253 µM)	relative viability ([2]; first compound 0.8 µM)	relative viability ([2]; first compound 2.53 µM)	relative viability ([2]; first compound 8 µM)	relative viability ([3]; first compound 0.253 µM)	relative viability ([3]; first compound 0.8 µM)	relative viability ([3]; first compound 2.53 µM)	relative viability ([3]; first compound 8 µM)	relative viability ([4]; first compound 0.253 µM)	relative viability ([4]; first compound 0.8 µM)	relative viability ([4]; first compound 2.53 µM)	relative viability ([4]; first compound 8 µM)	relative viability ([5]; first compound 0.253 µM)	relative viability ([5]; first compound 0.8 µM)	relative viability ([5]; first compound 2.53 µM)	relative viability ([5]; first compound 8 µM)
PC-14	0.144	0.159	0.158	0.119	0.73	0.58	0.758	0.879	0.973	0.939	0.845	0.941	0.96	0.973	0.948	0.929	0.507	0.487	0.75	0.603
NCI-H3122	0.0925	0.0714	0.0957	0.0756	0.51	0.695	0.554	0.658	0.257	0.273	0.27	0.277	1.04	0.96	0.982	1.06	0.401	0.393	0.394	0.358
SK-MES-1	0.774	0.591	0.793	0.945	0.358	0.403	0.323	0.37	1.02	0.966	0.926	0.946	1.07	0.984	1.02	1.13	0.628	0.687	0.662	0.642
NCI-H1944	0.795	0.711	0.618	0.723	0.354	0.354	0.342	0.308	1.06	1.12	1.01	1.3	1.19	1.16	1.02	1.18	0.255	0.218	0.208	0.204
LK-2	0.181	0.202	0.175	0.199	0.547	0.507	0.525	0.556	0.412	0.226	0.204	0.153	0.575	0.612	0.655	0.616	0.375	0.591	0.408	0.535
RERF-LC-KJ	1.27	1.17	1.22	1.14	0.488	0.455	0.508	0.55	0.783	0.842	0.796	0.858	0.846	0.864	0.843	0.817	0.424	0.411	0.392	0.413
COR-L23	0.697	0.653	0.657	0.765	0.814	0.751	0.729	0.947	0.594	0.635	0.567	0.695	0.89	0.9	0.776	1.03	0.429	0.442	0.435	0.423
NCI-H1355	0.652	0.887	0.761	0.753	0.324	0.513	0.419	0.505	1.12	1.05	1.02	1.1	0.846	0.891	0.808	0.687	0.463	0.473	0.451	0.436
NCI-H460	0.0334	0.0279	0.0363	0.037	0.372	0.339	0.461	0.341	0.943	0.969	0.684	0.986	0.927	0.806	0.71	0.71	0.519	0.571	0.476	0.499
NCI-H1993	1.78	0.877	0.612	0.832	0.706	0.832	0.786	0.758	0.998	0.86	0.819	0.882	0.732	0.784	0.7	0.777	0.526	0.457	0.524	0.438
ChaGo-K-1	0.541	0.508	0.636	0.53	0.916	0.563	0.91	0.766	1.14	1.13	1.14	1.41					0.485	0.446	0.561	0.472
HCC-15	0.231	0.7	0.395	0.452	0.699	0.79	0.793	0.801	0.789	0.829	0.909	0.872	0.867	0.908	0.879	0.913	0.456	0.472	0.473	0.44
NCI-H23	0.195	0.203	0.228	0.214	0.453	0.447	0.473	0.487	0.387	0.561	0.396	0.532	0.602	0.61	0.56	0.565	0.789	0.768	0.749	0.675
NCI-H1395	0.711	0.599	0.747	0.619	0.611	0.583	0.636	0.63					1.13	0.888	0.974	1.13	0.451	0.428	0.464	0.439
NCI-H1666		1.02	1.07	1.05	0.42	0.377	0.391	0.359	1.16	0.998	0.883	1	0.805	0.766	0.792	0.779		0.562	0.58	0.558
NCI-H2405	0.668	0.844	0.755	0.652	0.456	0.464	0.424	0.479	0.866	0.844	0.817	0.873	1.05	0.954	1.04	0.988	0.379	0.388	0.381	0.395

Cell Line	relative viability ([1]; first compound 0.253 µM)	relative viability ([1]; first compound 0.8 µM)	relative viability ([1]; first compound 2.53 µM)	relative viability ([1]; first compound 8 µM)	relative viability ([2]; first compound 0.253 µM)	relative viability ([2]; first compound 0.8 µM)	relative viability ([2]; first compound 2.53 µM)	relative viability ([2]; first compound 8 µM)	relative viability ([3]; first compound 0.253 µM)	relative viability ([3]; first compound 0.8 µM)	relative viability ([3]; first compound 2.53 µM)	relative viability ([3]; first compound 8 µM)	relative viability ([4]; first compound 0.253 µM)	relative viability ([4]; first compound 0.8 µM)	relative viability ([4]; first compound 2.53 µM)	relative viability ([4]; first compound 8 µM)	relative viability ([5]; first compound 0.253 µM)	relative viability ([5]; first compound 0.8 µM)	relative viability ([5]; first compound 2.53 µM)	relative viability ([5]; first compound 8 µM)
NCI-H2009	1.02	1.08	0.943	0.916	0.874	0.803	0.8	0.771	1.05	1.03	0.99	1.05	1.24	1.15	1.11	1.1	0.481	0.485	0.453	0.453
HCC-78					0.223	0.173	0.201	0.205	0.349	0.327	0.292	0.379	0.516	0.434	0.482	0.675	0.747		0.75	0.685
NCI-H2170	0.686	0.879	0.716	0.746	0.297	0.326	0.295	0.335	1.15	1.19	1.23	1.28					0.42	0.444	0.418	0.445
NCI-H1793		0.183	0.177	0.15	0.267	0.308		0.303					0.656	0.944		0.956		0.38	0.352	0.408
HCC-366					0.168	0.162	0.0835	0.11	0.615	0.6	0.537	0.968	0.726	0.65	0.623	0.6		0.595	0.589	0.589
NCI-H1651	0.856	0.813	0.874	0.885	0.552	0.581	0.461	0.595	0.892	0.884	0.858	0.868	0.953	1.1	0.902	1.04	0.297	0.326	0.328	0.313
LC-2-ad	0.926	0.938	1.12	1.11	0.465	0.409	0.514	0.506	0.217	0.433	0.437	0.537	0.811	0.805	0.782	0.899	0.521	0.556	0.505	0.587
HCC-827	0.77	0.588	0.459	0.866	0.954	1.08	1.16	1.03	0.933	0.98	0.866	0.885	0.954	0.97	0.899	0.979	0.439	0.383	0.382	0.382
UMC-11	0.914	1.02	1.08	1.17	0.891	0.865	0.767	0.853	0.619	0.632	0.584	0.611	0.981	1.01	1.13	1.15	0.322	0.319	0.304	0.293
NCI-H1703					0.243	0.224	0.275	0.269	0.718	0.727	0.565	1.04	0.852	1.12	0.853	0.6				
NCI-H1650	0.185	0.196	0.162	0.186	0.501	0.547	0.521	0.589	0.982	0.897	1.11	1.2					0.47	0.4	0.367	0.379
NCI-H2342	0.756	0.761	0.747	0.784													0.556	0.547	0.666	0.532
SW 900	0.217	0.193	0.174	0.166													0.498	0.625	0.493	0.563
NCI-H522	1.19	0.977	1.12	1.05													0.552	0.565	0.705	0.546
IA-LM					0.358	0.356	0.343	0.339	0.816	0.662	0.797	1.14	0.629	0.618	0.492	0.553				
